Experiments:
p50GAP = p50GAP (Homo sapiens, UniProt Q07960); experiment: p50GAP-stimulated GTP-hydrolysis, stopped-flow; type: biochemical
[1] = system: Vav3−/− cells expressing p190-BCR-ABL; experiment: Cell cycle analysis; type: cell-based, murine; details: 3 μM, 20 h
Protocol: FIG. 14: IODVA1 targets Vav3 in vitro and in vivo. (A) Ba/F3 cells expressing empty vector Mieg3 or p190-BCR-ABL1 were treated with vehicle control or IODVA1 (IO1, 3 μM) for 30 min and incubated with GST-Rac and glutathione beads. Beads were washed and the protein complexes were separated on SDS-PAGE and immunoblotted for pVav3. Input Vav3 was used as control. (B) Binding affinity (Kd) between IODVA1 and Vav3 (green), LARG (brown), and RacGDP (blue). […] Error bars=SD; N=3. (C) Quantification of the average number of colonies made by bone marrow wild-type (black) and Vav3^−/− (lilac) p190-BCR-ABL1 leukemic cells treated with vehicle control or IODVA1 (IO1, 1 and 3 μM) (* p≤0.05; ** p≤0.01; *** p≤0.001; ns, not significant). (D) Representative histogram data of the cell cycle analysis of wild-type (black and grey bars) and Vav3^−/− (dark and light lilac) bone marrow cells expressing p190-BCR-ABL and treated with vehicle control or IODVA1 (IO1, 3 μM) for 20 h. (E) Quantification by densitometry of the pVav3 band from FIG. 14A. […]
Cell cycle was analyzed by using in vitro incorporation of 5-Bromo-2-deoxyuridine using Brdu Flow kit (BD Pharmingen, Cat #552598). […] DNAse treatment was done according to the instructions and stained with anti BrdU and apoptosis was analyzed by 7-AAD staining through flow cytometry analysis.

p50GAP, sequence (Q07960 whole entry): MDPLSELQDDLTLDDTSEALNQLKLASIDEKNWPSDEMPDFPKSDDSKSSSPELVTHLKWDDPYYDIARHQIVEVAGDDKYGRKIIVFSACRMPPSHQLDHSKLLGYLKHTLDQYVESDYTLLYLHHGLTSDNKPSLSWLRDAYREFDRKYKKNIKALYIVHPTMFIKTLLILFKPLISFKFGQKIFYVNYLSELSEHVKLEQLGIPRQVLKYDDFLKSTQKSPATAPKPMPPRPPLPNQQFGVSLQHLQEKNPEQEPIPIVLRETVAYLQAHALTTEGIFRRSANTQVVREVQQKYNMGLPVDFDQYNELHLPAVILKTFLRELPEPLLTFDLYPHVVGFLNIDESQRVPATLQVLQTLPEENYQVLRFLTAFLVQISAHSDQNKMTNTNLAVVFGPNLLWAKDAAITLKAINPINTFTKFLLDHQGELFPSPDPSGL

Q: Which results are given for OC1(c2ccccn2)N=C(Nc2nc3ccccc3[nH]2)N=C1c1ccccn1 (centres unmarked) [IODVA1, (Z)-2-((1H-benzo[d]imidazol-2-yl)imino)-4,5-di(pyridin-2-yl)-2,5-dihydro-1H-imidazol-5-ol]?
A: stimulation of the activity of p50GAP (p50GAP): does not stimulate; cell cycle [1]: not affected

Source: patent US11564913B2, “Compositions and methods for treating cancer” (Children's Hospital Medical Center, priority 2019, dated 2023)
